{"source": "patent US10487314B2", "about": "“Inhibition of serotonin expression in gut enteroendocrine cells results in conversion to insulin-positive cells” (priority 2014, dated 2019)", "origin": "cited, not measured here", "key": {"[1]": {"test_system": "ALDH1A3 mRNA", "conditions": "human prostate"}, "[2]": {"molecular_target": "5-HT2B (Homo sapiens, UniProt P41595)", "sequence (P41595 whole entry, species assumed)": "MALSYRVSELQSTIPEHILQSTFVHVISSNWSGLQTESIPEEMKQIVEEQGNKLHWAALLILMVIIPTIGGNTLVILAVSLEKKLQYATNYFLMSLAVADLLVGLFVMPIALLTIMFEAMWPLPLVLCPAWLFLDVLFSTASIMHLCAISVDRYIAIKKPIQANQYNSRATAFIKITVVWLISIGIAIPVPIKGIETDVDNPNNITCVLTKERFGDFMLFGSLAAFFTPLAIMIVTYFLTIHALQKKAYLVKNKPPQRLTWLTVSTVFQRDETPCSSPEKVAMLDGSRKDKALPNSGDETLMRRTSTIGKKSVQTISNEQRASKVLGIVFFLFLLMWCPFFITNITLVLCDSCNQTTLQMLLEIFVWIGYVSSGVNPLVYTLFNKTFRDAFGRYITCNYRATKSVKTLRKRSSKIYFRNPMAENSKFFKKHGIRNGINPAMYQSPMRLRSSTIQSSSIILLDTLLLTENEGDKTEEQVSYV"}}}
{"smiles": "C[C@]12CCC(=O)C[C@@H]1CC[C@@H]1[C@@H]2CC[C@]2(C)[C@@H](O)CC[C@@H]12", "note": "[Androgen dihydrotestosterone (DHT), dihydrotestosterone]", "values": [{"measurement": "increase in ALDH1A3 mRNA levels", "setting": "[1]", "value": 4, "unit": "fold"}]}
{"smiles": "Cc1cc([N+](=O)[O-])c(N2CCN(Cc3ccccc3)CC2)cc1N", "note": "[EGIS-7625]", "values": [{"measurement": "selectivity over 5-HT2A", "setting": "[2]", "value": "high selectivity"}]}
{"smiles": "CC(C)c1cc(-c2ccc(F)c3ccccc23)nc(N)n1", "note": "[RS-127,445]", "values": [{"measurement": "affinity for 5-HT2B", "setting": "[2]", "value": "high affinity"}, {"measurement": "subtype selectivity", "setting": "[2]; 5-HT2B versus other subtypes", "value": 1000, "unit": "×"}, {"measurement": "oral bioavailability", "value": "orally bioavailable"}]}
